Kis and Kii data for one compound are collected here from ChEMBL document CHEMBL4043266, “Pentacyclic triterpenes as α-glucosidase and α-amylase inhibitors: Structure-activity relationships and the synergism with acarbose” (Bioorg Med Chem Lett, 2017).

Test [1] has as its target T1, Pancreatic alpha-amylase (Sus scrofa) (UniProt P00690).
T1 sequence (whole entry): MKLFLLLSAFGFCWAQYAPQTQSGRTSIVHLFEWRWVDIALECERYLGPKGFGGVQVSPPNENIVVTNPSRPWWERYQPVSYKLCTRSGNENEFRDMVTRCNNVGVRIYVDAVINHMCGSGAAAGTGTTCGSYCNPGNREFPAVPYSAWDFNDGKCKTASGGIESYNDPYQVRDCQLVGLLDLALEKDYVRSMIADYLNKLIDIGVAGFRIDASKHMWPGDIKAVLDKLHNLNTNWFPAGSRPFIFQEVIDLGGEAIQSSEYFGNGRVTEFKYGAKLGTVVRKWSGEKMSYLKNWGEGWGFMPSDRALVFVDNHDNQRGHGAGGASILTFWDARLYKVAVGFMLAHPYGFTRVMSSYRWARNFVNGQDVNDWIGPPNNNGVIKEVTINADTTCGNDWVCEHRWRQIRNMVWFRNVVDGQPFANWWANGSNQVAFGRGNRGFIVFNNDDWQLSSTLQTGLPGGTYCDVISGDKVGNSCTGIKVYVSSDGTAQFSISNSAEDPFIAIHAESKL
Description: Non-competitive inhibition of porcine pancreatic alpha-amylase assessed as inhibitor-enzyme-substrate complex using starch as substrate by Lineweaver-Burk plot analysis

In test [2] the target is T1, Pancreatic alpha-amylase (Sus scrofa). The source holds these as a separate data set.
Description: Non-competitive inhibition of porcine pancreatic alpha-amylase assessed as inhibitor-enzyme complex using starch as substrate by Lineweaver-Burk plot analysis

In test [1], `C[C@H]1[C@H](C)CC[C@]2(C(=O)O)CC[C@]3(C)C(=CC[C@@H]4[C@@]5(C)C[C@@H](O)[C@H](O)C(C)(C)[C@@H]5CC[C@]43C)[C@H]12` returned a Kis of 25.6 µM. In test [2], this compound showed a Kii of 28.3 µM.
